Patent US20100311827A1, “Chlorogenic acid derivatives and their use as anti-fungal agents” (priority 2006, published 2010)
≈ marks a conversion by molar mass, not a printed value. Read-outs that look alike come from different tables or passages of the source.

Legend:
brine shrimp = format: in vivo
Protocol: The general in vitro toxicity of these compounds can be tested using the Brine Shrimp Lethality assay, as described in Mclaughlin, J. L. in Methods in Plant Biochemistry. Ed. K. Hostettmann, Academic Press, London, 1991; Vol. 6, pp. 1-32. Typically, candidate compounds are diluted in seawater to a suitable concentration and added to second instar larvae of Artemia salina. After a suitable period of time, for example 24 hours, the survivors are counted. In vitro acute toxicity testing of a compound of Formula I can also be performed using mammalian cell lines (see, for example, Ekwall, B., Ann. N.Y. Acad. Sci., (1983) 407:64-77). Selection of an appropriate cell line is dependent on the potential application of the candidate compound and can be readily determined by one skilled in the art.
To test the general toxicity of these compounds, Brine Shrimp Lethality assay was carried out according to Mclaughlin, J. L. in Methods in Plant Biochemistry. Ed. K. Hostettmann, Academic Press, London, 1991; Vol. 6, pp. 1-32. The compounds were tested at 100 μg/ml.

Candida krusei ATCC6258 = experiment: Broth dilution anti-fungal susceptibility, MIC (as in Example 24); format: cell-based
[1] = system: Aspergillus fumigatus (ATCC13073); experiment: Broth dilution anti-fungal susceptibility of filamentous fungi (NCCLS M38-A), MIC; format: cell-based; settings: Table 1, MICs read at 80% inhibition, 35° C., 48 hours, tested 0.12 to 64 μg/ml
Protocol: (§1) The anti-fungal activity of the compounds according to the invention were evaluated against Candida albicans (ATCC90028), Cryptococcus neoformans (ATCC32045), and Aspergillus fumigatus (ATCC13073) according to NCCLS guidelines (NCCLS reference method for broth dilution anti-fungal susceptibility testing of yeasts; approved standard-second edition, M27-A2, National Committee for Clinical Laboratory Standards, Villanova, Pa. 2003; and NCCLS reference method for broth dilution anti-fungal susceptibility testing of filamentous fungi; approved standard, M38-A, National Committee for Clinical Laboratory Standards, Villanova, Pa. 2002).
(§2) The medium required for the evaluation of anti-fungal activity was prepared as follows. RPMI 1640 broth+MOPS, pH adjusted and filter sterilized. Sabouraud Dextrose Agar (SDA) plates were used for growing fungi.
(§3) All test or candidate compounds were prepared as 5 mg/ml stock solutions in DMSO and further diluted according to the NCCLS guidelines with sterile water or appropriate diluent. A working stock of 256 μg/ml was used to prepare 1:2 serial dilutions in 96-well plates.
(§4) The inoculums of fungi were prepared by making a direct sterile water suspension of colonies/spores from SDA plates. 0.1% Tween 20 was used for A. fumigatus for better dispersal of spores in suspension. For C. albicans and C. neoformans overnight cultures were used. A. fumigatus required longer incubation. Each fungal suspension was adjusted to read between 70 and 75% transmittance at 530 nm (0.5 McFarland Standard). These suspensions were further diluted 1/1000 in appropriate broth for inoculating the 96-well plates.
(§5) All plates were incubated at 35° C. for the following times: 18 hours to 24 hours for C. albicans, 48 hours for A. fumigatus, and 48 to 72 hours for C. neoformans.

[2] = system: Candida albicans (ATCC90028); experiment: Broth dilution anti-fungal susceptibility (NCCLS M27-A2), MIC; format: cell-based; settings: for MIC: Candida albicans, MICs read at 80% inhibition
Protocol: as §1, §2, §3, §4, §5

[3] = system: Cryptococcus neoformans (ATCC32045); experiment: as above; format: cell-based; settings: Table 1, MICs read at 80% inhibition, 35° C., 48 to 72 hours, tested 0.12 to 64 μg/ml
Protocol: as §1, §2, §3, §4, §5

[4] = comparison in words, from Table 3

## CCCCCCCCOc1ccc(NC(=O)C(NC(=O)C2(O)CC(O)C(O)C(OC(=O)/C=C/c3ccc(O)c(O)c3)C2)C(C)O)cc1 (stereo not drawn) [Compound 12]
Brine shrimp; at 100 μg/ml
  % BL (brine shrimp lethality): 12.5%
Brine shrimp; comparison in words, from Table 2
  toxicity on brine shrimp compared to chlorogenic acid: less toxicity
Candida krusei ATCC6258; Pichia kudriavzevii, ATCC6258, Table 3 (Example 26), MICs read at 80% inhibition, 0.12 to 64 μg/ml, read-out: MIC C. krusei
  MIC: 2 µg/mL (≈ 3.04 µM)
Candida krusei ATCC6258; [4]
  inhibitory activity against C. krusei compared to chlorogenic acid: more potent inhibitory activity
[1]
  MIC: > 64 µg/mL
[2]; ATCC90028, Table 1, 35° C., 18 to 24 hours, tested 0.12 to 64 μg/ml
  MIC: 8 µg/mL (≈ 12.1 µM)
[2]; ATCC90028, Table 3 (Example 26, additional testing), 0.12 to 64 μg/ml, read-out: MIC C. albicans
  MIC: 4 µg/mL (≈ 6.07 µM)
[2]; [4]
  inhibitory activity against C. albicans compared to chlorogenic acid: more potent inhibitory activity
[3]
  MIC: 2 µg/mL (≈ 3.04 µM)
